Results: PMC11370402 (bioRxiv, 2024)

Tested on: human tracheobronchial epithelial cells (hTECs) basal-ESC growth
Test: hTEC growth in submerged 2D culture
Assay type: cell-based

O=c1ncn2nc(Sc3ccc(F)cc3F)ccc2c1-c1c(Cl)cccc1Cl [NuP-401, VX-745]
effect on basal cell growth: not found
